Like-named read-outs stand apart in the source and are kept apart here.
Test system: Human dermal fibroblasts from Friedreich's Ataxia patients
Experiment: Rescue of FRDA fibroblasts stressed by BSO (Calcein AM viability)
Format: cell-based
Conditions: FRDA fibroblasts GM04078, 1 mM BSO, 48 h
Protocol: An initial screen was performed to identify compounds effective for the amelioration of redox disorders. Test samples, 4 reference compounds (idebenone, decylubiquinone, Trolox and alpha-tocopherol), and solvent controls were tested for their ability to rescue FRDA fibroblasts stressed by addition of L-buthionine-(S,R)-sulfoximine (BSO), as described in Jauslin et al., Hum. Mol. Genet. 11(24):3055 (2002), Jauslin et al., FASEB J. 17:1972-4 (2003), and International Patent Application WO 2004/003565. […] This specific BSO-mediated cell death can be prevented by administration of antioxidants or molecules involved in the antioxidant pathway, such as alpha-tocopherol, selenium, or small molecule glutathione peroxidase mimetics. However, antioxidants differ in their potency, i.e. the concentration at which they are able to rescue BSO-stressed FRDA fibroblasts.
MEM (a medium enriched in amino acids and vitamins, catalog no. 1-31F24-I) and Medium 199 (M199, catalog no. 1-21F22-I) with Earle's Balanced Salts, without phenol red, were purchased from Bioconcept. Fetal Calf Serum was obtained from PAA Laboratories. Basic fibroblast growth factor and epidermal growth factor were purchased from PeproTech. Penicillin-streptomycin-glutamine mix, L-buthionine (S,R)-sulfoximine, (+)-alpha-tocopherol, decylubiquinone, and insulin from bovine pancreas were purchased from Sigma. Trolox (6-Hydroxy-2,5,7,8-tetramethylchromane-2-carboxylic acid) was obtained from Fluka. Idebenone was obtained from Chemo Iberica. Calcein AM was purchased from Anaspec. Cell culture medium was made by combining 125 ml M199 EBS, 50 ml Fetal Calf Serum, 100 U/ml penicillin, 100 microgram/ml streptomycin, 2 mM glutamine, 10 microgram/ml insulin, 10 ng/ml EGF, and 10 ng/ml bFGF; MEM EBS was added to make the volume up to 500 ml. A 10 mM BSO solution was prepared by dissolving 444 mg BSO in 200 ml of medium (Invitrogen, Carlsbad, Ca.) with subsequent filter-sterilization. During the course of the experiments, this solution was stored at +4° C. The cells were obtained from the Coriell Cell Repositories (Camden, N.J.; repository number GM04078) and grown in 10 cm tissue culture plates. Every third day, they were split at a 1:3 ratio.
The test samples were supplied in 1.5 ml glass vials. The compounds were diluted with DMSO, ethanol or PBS to result in a 5 mM stock solution. Once dissolved, they were stored at −20° C. Reference antioxidants (idebenone, decylubiquinone, alpha-tocopherol and Trolox) were dissolved in DMSO.
Test samples were screened according to the following protocol:
A culture with FRDA fibroblasts was started from a 1 ml vial with approximately 500,000 cells stored in liquid nitrogen. Cells were propagated in 10 cm cell culture dishes by splitting every third day in a ratio of 1:3 until nine plates were available. Once confluent, fibroblasts were harvested. For 54 micro titer plates (96 well-MTP) a total of 14.3 million cells (passage eight) were re-suspended in 480 ml medium, corresponding to 100 microliters medium with 3,000 cells/well. The remaining cells were distributed in 10 cm cell culture plates (500,000 cells/plate) for propagation. The plates were incubated overnight at 37° C. in a atmosphere with 95% humidity and 5% CO2 to allow attachment of the cells to the culture plate.
10% DMSO (242.5 microliters) was added to a well of the microtiter plate. The test compounds were unfrozen, and 7.5 microliters of a 5 mM stock solution was dissolved in the well containing 242.5 microliters of 10% DMSO, resulting in a 150 micromolar master solution. Serial dilutions from the master solution were made. The period between the single dilution steps was kept as short as possible (generally less than 30 seconds). At least 4 hours after attachment into MTP, cells were then treated with the various compound dilutions.
Plates were kept overnight in the cell culture incubator. […]

[1] = Homo sapiens, average, compounds of the invention, read-out: Ec50 Average

In the case of `O=c1ccc2nc3ccc(C(F)(F)F)cc3sc-2c1` [Compound 3], the EC50 [1] is reported as 28 nM.

Work on `Cc1cc(=O)c(C)c2sc3ccccc3nc1-2` [Compound 1] yielded an EC50 [1] of 3 nM.

Compound `COC1=C(OC)C(=O)C(CCCCCCCCCCO)=C(C)C1=O` [Idebenone] has an EC50 (Homo sapiens, third of three experiments, read-out: EC50 Value 3) of 1000 nM.

`CN(C)c1ccc2nc3ccc(=O)cc-3sc2c1` [Compound 2] showed an EC50 [1] of 3 nM.

Compound `Cc1c(C)c2c(c(C)c1O)CC[C@@](C)(CCC[C@H](C)CCC[C@H](C)CCCC(C)C)O2` [alpha-tocopherol] has an EC50 (average of three values, control compounds, read-out: EC50 Average) of 300 nM, an EC50 (first of three experiments, read-out: EC50 Value 1) of 400 nM and an EC50 (second of three experiments, read-out: EC50 Value 2) of 150 nM. The EC50 (third of three experiments, read-out: EC50 Value 3) was 350 nM.

Work on `Cc1c(C)c2c(c(C)c1O)CCC(C)(C(=O)O)O2` (stereo not drawn) [Trolox, 6-Hydroxy-2,5,7,8-tetramethylchromane-2-carboxylic acid] yielded an EC50 (Homo sapiens, first of three experiments, read-out: EC50 Value 1) of 9000 nM.
